Measured values: ChEMBL document CHEMBL1201862, “PubChem BioAssay data set” (2004)
Activity calls are given as the source filed them.

Experiments:
[1] = reduction of Shn3 3'UTR-driven luciferase in osteoblasts – cell-based, Clone20 osteoblasts, firefly luciferase, cherry-picked, dose response (AID 624132); format: functional;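 note: firefly luciferase luminescence from reporter carrying the Shn3 3'UTR in osteoblasts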
[2] = MIN6 cell viability loss – mouse insulinoma, cytotoxicity control, dose response (AID 2122); format: functional;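 note: confirmatory high-throughput counterscreen run to flag cytotoxic compounds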
HEK293 = assay: cells; settings: Homo sapiens;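 note: cells exposed to compound for 14 hours overnight before viability readout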
Tumor necrosis factor = Tumor necrosis factor (Homo sapiens, UniProt P01375); assay: analog potency on TNFa NF-kB signaling – cell-based, revised, SAR follow-up (AID 2337); format: functional
[3] = HEK-293T viability loss after treatment – luminescence, T-cell screen hits, cytotoxicity control for TCR NF-kB inhibitor project, dose response (AID 489026); format: functional, cell-based;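 note: cells exposed to compound about 14 hours before the viability readout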
[4] = loss of viability in HepG2 cells – cell-based, CellTiter-Glo, cherry-picked, cytotoxicity control for Shn3 inhibitor project, dose response (AID 624134); format: functional
[5] = decrease of insulin promoter-GFP reporter – imaging, high-content screening, mouse beta cells (AID 1628); format: functional; settings: MIN6
[6] = molecular target: Nucleotide-binding oligomerization domain-containing protein 1 (Homo sapiens, UniProt Q9Y239); assay: blockers of NOD1 pathway activity – revised, SAR follow-up (AID 2333); format: functional
[7] = non-specific 3'UTR reporter inhibition in Clone20-Shn3RL – cell-based, Renilla luciferase, cherry-picked, counter-screen for Shn3 inhibitor project, dose response (AID 624133); format: functional
[8] = DRD fibroblast viability loss – cell-based, non-viral oncogenic, luminescence, dose response (AID 1934); format: functional; settings: Homo sapiens
BJ [9] = assay: BJ-TERT fibroblast viability loss – cell-based, RAS-independent, luminescence, dose response (AID 1933); format: functional; settings: Homo sapiens
BJ [10] = assay: cells; format: functional, cell-based; settings: Homo sapiens
[11] = molecular target: T1, Replicative DNA helicase DnaB (Mycobacterium tuberculosis, UniProt P9WMR3); assay: DnaB intein splicing inhibitors, dose response, biochemical, cell-free fluorescence (AID 449749); format: functional
T1 sequence (P9WMR3 whole entry): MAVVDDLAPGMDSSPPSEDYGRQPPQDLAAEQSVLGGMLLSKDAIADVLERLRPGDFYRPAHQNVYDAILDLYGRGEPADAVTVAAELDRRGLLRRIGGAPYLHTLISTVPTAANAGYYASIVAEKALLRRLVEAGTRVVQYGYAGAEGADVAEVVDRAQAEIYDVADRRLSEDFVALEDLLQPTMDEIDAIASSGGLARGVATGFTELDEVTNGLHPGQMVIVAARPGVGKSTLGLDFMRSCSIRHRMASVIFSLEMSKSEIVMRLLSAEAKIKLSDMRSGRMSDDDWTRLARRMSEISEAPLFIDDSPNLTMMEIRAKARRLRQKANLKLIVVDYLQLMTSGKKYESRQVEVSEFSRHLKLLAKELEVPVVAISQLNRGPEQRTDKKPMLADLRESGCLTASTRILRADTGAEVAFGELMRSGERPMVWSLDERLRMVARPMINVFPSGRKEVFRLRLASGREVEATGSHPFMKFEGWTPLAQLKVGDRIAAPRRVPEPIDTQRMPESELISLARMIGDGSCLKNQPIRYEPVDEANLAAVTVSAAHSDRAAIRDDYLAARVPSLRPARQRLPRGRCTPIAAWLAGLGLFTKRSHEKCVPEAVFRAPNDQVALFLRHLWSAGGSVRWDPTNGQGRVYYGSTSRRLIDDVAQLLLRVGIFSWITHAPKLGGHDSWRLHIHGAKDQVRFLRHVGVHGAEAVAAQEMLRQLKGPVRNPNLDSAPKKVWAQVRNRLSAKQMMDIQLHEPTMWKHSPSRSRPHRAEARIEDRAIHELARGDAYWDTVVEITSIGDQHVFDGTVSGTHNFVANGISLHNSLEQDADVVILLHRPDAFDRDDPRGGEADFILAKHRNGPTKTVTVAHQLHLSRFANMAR

Hexokinase HKDC1 = molecular target: T2, Hexokinase HKDC1 (Homo sapiens, UniProt Q2TB90); assay: inhibition of HKDC1 glucose phosphorylation – biochemical, W721R variant, dose response (AID 504729); format: functional
T2 sequence (Q2TB90 whole entry): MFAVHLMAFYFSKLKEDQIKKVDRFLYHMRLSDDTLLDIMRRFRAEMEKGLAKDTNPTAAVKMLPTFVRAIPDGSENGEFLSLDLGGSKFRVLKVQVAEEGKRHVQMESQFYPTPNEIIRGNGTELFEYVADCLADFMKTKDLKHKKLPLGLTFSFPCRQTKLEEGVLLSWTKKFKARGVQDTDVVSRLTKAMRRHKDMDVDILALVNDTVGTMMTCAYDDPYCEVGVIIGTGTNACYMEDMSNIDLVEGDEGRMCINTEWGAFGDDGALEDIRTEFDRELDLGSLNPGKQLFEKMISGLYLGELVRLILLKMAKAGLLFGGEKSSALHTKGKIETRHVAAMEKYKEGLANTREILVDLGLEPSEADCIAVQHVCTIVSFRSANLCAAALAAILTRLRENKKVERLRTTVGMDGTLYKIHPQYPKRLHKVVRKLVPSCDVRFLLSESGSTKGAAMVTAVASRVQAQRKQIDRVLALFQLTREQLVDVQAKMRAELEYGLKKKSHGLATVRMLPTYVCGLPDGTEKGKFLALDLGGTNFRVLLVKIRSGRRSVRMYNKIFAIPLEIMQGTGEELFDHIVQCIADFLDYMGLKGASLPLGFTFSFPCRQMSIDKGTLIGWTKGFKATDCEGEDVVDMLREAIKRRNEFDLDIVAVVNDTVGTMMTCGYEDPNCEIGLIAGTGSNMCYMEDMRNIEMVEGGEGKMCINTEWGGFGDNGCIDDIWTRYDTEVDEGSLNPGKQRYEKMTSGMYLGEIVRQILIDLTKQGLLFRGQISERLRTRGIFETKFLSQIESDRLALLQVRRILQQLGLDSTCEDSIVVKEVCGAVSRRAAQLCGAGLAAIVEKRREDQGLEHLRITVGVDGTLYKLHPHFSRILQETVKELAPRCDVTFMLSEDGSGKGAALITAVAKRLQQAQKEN

[12] = Intein inhibitors as potential Tuberculosis drugs, a cytotoxicity screen. [Related pubchem assays (depositor defined):AID2221, AID2223, AID434968, AID435010, AID449749, AID449750, AID489010]; format: functional
BJ [13] = assay: BJ-TERT-LT-ST fibroblast viability loss – cell-based, RAS-independent, luminescence, dose response (AID 1935); format: functional; settings: Homo sapiens;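 note: BJ fibroblasts immortalized with TERT plus LT and ST oncogenes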
Protein RecA = molecular target: T3, Protein RecA (Mycobacterium tuberculosis, UniProt P9WHJ3); assay: Fluorescence Cell-Free Homogeneous Dose Retest to Identify Inhibitors of RecA-Intein Splicing Activity. [Related pubchem assays (depositor defined):AID2097, AID2223, AID489010, AID492950]; format: functional
T3 sequence (P9WHJ3 whole entry): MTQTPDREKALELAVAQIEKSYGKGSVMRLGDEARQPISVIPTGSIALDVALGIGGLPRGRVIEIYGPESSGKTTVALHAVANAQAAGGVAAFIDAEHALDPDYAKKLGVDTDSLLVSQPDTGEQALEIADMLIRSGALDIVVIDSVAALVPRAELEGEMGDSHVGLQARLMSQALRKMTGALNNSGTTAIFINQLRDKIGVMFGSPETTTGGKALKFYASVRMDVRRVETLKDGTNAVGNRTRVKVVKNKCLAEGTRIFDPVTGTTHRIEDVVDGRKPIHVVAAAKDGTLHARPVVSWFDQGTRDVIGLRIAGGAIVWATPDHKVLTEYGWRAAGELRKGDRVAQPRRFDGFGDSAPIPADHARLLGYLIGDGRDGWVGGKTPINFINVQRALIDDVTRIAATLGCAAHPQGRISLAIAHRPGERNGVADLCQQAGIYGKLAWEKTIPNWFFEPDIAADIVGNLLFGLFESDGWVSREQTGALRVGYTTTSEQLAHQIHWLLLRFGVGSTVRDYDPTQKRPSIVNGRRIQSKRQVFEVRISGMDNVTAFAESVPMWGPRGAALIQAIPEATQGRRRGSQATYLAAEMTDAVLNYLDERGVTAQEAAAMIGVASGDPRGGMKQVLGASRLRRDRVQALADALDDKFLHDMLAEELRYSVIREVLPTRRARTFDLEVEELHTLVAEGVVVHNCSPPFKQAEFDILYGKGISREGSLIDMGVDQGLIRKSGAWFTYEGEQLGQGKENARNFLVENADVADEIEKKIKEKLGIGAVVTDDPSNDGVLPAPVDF

[14] = molecular target: Glyceraldehyde-3-phosphate dehydrogenase (Homo sapiens, UniProt P04406)
[15] = molecular target: T4, Alkaline phosphatase, tissue-nonspecific isozyme (Homo sapiens, UniProt P05186); assay: potency against alkaline phosphatase TNAP – biochemical, luminescent, dose response, SAR follow-up (AID 1056)
T4 sequence (P05186 whole entry): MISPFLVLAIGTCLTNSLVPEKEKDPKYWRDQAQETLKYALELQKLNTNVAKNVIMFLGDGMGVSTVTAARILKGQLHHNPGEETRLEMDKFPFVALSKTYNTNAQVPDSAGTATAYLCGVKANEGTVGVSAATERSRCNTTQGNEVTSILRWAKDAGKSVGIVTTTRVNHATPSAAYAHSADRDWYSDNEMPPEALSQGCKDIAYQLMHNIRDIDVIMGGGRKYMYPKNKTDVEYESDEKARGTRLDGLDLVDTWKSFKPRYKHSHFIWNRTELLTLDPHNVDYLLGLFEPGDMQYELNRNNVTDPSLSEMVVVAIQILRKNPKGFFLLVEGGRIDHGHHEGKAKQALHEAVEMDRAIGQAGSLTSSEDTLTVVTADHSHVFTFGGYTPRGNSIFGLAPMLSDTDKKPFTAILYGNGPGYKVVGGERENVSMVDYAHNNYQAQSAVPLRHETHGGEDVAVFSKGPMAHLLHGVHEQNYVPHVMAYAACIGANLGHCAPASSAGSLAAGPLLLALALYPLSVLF

Paired box protein Pax-8 = Paired box protein Pax-8 (Homo sapiens, UniProt Q06710); assay: PAX8 transcriptional activity inhibition in RMG-I – RMG-I cells, luciferase, cherry-pick, dose response (AID 687027); format: functional, cell-based;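 note: luciferase reporter driven by Pax8 target thyroperoxidase promoter measured by SteadyGlo luminescence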
[16] = general cell-killing toxicity readout – plate reader, dry powder samples, cytotoxicity control for PAX8 inhibitor project, dose response (AID 743021); format: functional, cell-based
Vero = assay: mammalian cell viability reduction – secondary assay, cytotoxicity control for West Nile virus antiviral project, dose response (AID 1650); format: functional; settings: Chlorocebus sabaeus
[17] = molecular target: T5, Heat shock factor protein 1 (Mus musculus, UniProt P38532); assay: enhancement of HSF1-driven luciferase signal – cell-based, NIH3T3, luminescence, dose retest, confirmation (AID 435004); format: functional;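 note: stress induced by proteasome inhibitor MG132 added 30 min after compound; luciferase reporter driven by HSF1 response element in NIH3T3 cells; actives raise luminescence as potentiators of the MG132 stress response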
T5 sequence (P38532 whole entry): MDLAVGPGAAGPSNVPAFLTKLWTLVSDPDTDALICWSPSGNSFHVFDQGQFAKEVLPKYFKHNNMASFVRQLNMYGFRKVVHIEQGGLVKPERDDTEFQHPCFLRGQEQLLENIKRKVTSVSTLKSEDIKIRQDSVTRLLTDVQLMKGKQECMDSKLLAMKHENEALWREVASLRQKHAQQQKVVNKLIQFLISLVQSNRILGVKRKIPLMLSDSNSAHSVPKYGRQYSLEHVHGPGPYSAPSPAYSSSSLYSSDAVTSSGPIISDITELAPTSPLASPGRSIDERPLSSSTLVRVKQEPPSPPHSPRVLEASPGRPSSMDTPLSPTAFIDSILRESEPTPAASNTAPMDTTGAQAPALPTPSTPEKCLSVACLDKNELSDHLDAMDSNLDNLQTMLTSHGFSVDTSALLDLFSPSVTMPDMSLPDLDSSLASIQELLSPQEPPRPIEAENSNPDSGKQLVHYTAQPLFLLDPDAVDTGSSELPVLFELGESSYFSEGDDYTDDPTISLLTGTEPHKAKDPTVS

[18] = molecular target: Alkaline phosphatase, placental type (Homo sapiens, UniProt P05187); assay: human placental alkaline phosphatase inhibition – biochemical, luminescence, confirmation (AID 1512); format: functional
Chain of Alkaline phosphatase, placental type (P05187 whole entry): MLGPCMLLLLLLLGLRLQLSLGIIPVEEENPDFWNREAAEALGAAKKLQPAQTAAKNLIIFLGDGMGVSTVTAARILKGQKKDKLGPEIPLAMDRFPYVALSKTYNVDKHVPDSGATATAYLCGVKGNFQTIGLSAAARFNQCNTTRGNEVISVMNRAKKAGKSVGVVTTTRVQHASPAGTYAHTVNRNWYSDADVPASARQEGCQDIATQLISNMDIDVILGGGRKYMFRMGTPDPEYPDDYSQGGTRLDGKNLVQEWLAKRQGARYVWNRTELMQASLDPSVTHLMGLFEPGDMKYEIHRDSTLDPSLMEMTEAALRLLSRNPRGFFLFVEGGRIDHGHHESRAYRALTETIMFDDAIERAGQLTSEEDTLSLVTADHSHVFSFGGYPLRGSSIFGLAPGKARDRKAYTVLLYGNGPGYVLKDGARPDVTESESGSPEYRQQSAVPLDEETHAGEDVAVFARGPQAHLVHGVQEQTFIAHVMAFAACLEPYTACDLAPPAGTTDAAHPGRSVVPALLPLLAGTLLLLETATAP

Chain of Paired box protein Pax-8 (Q06710 whole entry): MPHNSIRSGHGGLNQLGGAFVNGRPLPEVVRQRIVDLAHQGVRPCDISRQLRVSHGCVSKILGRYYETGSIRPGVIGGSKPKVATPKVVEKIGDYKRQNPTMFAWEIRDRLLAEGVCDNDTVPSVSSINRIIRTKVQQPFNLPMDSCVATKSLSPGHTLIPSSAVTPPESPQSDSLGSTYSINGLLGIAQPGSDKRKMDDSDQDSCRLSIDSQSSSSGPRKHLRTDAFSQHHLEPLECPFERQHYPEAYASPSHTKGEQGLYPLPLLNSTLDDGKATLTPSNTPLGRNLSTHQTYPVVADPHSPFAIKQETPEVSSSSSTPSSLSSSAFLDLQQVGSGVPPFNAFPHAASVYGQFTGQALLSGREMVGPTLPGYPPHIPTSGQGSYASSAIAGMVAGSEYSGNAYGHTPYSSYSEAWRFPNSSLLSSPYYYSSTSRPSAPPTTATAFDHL
Chain of Glyceraldehyde-3-phosphate dehydrogenase (P04406 whole entry): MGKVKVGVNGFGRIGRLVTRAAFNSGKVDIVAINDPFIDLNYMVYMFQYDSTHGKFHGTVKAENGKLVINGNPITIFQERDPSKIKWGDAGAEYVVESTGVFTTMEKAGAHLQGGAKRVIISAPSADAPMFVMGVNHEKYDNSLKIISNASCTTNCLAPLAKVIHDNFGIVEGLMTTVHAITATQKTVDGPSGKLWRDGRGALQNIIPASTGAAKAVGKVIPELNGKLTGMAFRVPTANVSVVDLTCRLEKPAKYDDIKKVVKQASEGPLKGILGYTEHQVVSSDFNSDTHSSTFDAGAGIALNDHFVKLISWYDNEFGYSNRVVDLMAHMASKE
Chain of Nucleotide-binding oligomerization domain-containing protein 1 (Q9Y239 whole entry, the tested form may be a part): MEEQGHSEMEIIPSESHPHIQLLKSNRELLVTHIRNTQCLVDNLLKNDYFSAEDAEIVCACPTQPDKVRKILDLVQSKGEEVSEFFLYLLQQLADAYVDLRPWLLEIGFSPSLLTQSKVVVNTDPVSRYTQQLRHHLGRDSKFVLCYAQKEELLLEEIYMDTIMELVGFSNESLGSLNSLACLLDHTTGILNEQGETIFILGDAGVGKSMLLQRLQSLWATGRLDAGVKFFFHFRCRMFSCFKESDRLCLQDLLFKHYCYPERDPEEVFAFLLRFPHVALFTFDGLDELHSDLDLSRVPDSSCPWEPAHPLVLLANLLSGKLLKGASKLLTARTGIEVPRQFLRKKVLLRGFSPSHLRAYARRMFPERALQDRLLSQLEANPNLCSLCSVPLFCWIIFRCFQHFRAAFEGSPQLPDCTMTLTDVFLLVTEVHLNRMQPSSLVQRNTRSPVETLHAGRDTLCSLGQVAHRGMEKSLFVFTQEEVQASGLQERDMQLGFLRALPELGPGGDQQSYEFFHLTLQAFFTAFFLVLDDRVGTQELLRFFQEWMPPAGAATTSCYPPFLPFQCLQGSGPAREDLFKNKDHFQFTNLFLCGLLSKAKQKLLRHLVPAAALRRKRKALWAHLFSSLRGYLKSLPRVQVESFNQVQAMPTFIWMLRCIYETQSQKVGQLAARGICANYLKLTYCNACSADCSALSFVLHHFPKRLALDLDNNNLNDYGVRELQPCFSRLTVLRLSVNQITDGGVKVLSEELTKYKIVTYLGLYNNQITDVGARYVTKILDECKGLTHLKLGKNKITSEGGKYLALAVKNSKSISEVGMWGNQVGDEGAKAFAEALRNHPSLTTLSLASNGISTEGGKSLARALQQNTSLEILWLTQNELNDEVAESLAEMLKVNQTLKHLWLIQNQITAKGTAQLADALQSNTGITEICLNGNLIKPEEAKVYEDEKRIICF
Chain of Tumor necrosis factor (P01375 whole entry): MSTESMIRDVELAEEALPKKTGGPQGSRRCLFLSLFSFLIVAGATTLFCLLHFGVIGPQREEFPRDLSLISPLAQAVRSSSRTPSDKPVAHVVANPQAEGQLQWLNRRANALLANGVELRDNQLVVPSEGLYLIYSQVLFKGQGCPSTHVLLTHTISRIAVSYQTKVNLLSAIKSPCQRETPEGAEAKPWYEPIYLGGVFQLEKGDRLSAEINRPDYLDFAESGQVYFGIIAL

For `O=C(Nc1ccc(S(=O)(=O)N2CCCC2)cc1)c1ccc(CN2CCc3ccccc3C2)cc1`, which AC50 [1] is on record?
Its AC50 is 0.575 µM (active).

What about the IC50 [2] of the same molecule?
The IC50 was 0.576 µM (active).

What about the IC50 (HEK293) of the same molecule?
Its IC50 is 6.77 µM (active).

And the IC50 (Tumor necrosis factor)?
Its IC50 is 0.639 µM (active).

What about the IC50 [3] of the same molecule?
The IC50 was > 80 µM (inactive).

And the AC50 [4]?
The AC50 was 0.292 µM (active).

What about the IC50 [5] of the same molecule?
The IC50 was 0.707 µM (active).

What about the IC50 [6] of the same molecule?
Its IC50 is 0.418 µM (active).

And the AC50 [7]?
Its AC50 is 0.406 µM (active).

What does the source list for `CC(=O)n1cc(N(C(=O)CCl)c2ccc([N+](=O)[O-])cc2)c2ccccc21`?
EC50 [8]: 2.63 µM (inconclusive); EC50 (BJ [9]): 2.65 µM (inconclusive); EC50 (BJ [10]): 2.59 µM (inconclusive); AC50 [11]: 1.59 µM (active); IC50 (Hexokinase HKDC1): 27 µM (inactive); CC50 [12]: 12.3 µM (active); EC50 (BJ [13]): 4.78 µM (inconclusive); EC50 (Protein RecA): 0.358 µM (active)

Which results are given for `O=S(=O)(Nc1ccc2ccccc2c1)c1ccccc1`?
IC50 [14]: > 100 µM (not active); IC50 [15]: > 100 µM (inactive)

For `Cc1ccc(N(NC(=O)C(O)(c2ccccc2)c2ccccc2)C(=O)CCl)cc1`, which AC50 (Paired box protein Pax-8) is on record?
The AC50 was 8.18 µM (active).

What about the AC50 [11] of the same molecule?
Its AC50 is 4.45 µM (active).

What about the AC50 [16] of the same molecule?
Its AC50 is 11.8 µM (active).

And the CC50 (Vero)?
Its CC50 is 6.32 µM (active).

And the CC50 [12]?
The CC50 was 7.46 µM (active).

And the EC50 [17]?
The EC50 was > 260 µM (inconclusive).

And the EC50 (Protein RecA)?
Its EC50 is 0.529 µM (active).

For `Cc1cc(C)nc(SCC(=O)c2cccc(O)c2)n1`, which IC50 [18] is on record?
Its IC50 is > 100 µM (inactive).

What about the IC50 [15] of the same molecule?
The IC50 was > 100 µM (inactive).
